Laboratory results reported in US10660977B2, “Method for treating biological tissue and biological tissue” (WASEDA UNIVERSITY, priority 2012, dated 2020).

Assay: Concentration of trehalose dissolved in PBS
Format: physicochemical
Settings: PBS at 37° C.
Protocol: Also, the maximum concentration of trehalose was set to 50% because the concentration of trehalose dissolved in PBS at 37° C. was about 50%.

With `OC[C@H]1O[C@H](O[C@H]2O[C@H](CO)[C@@H](O)[C@H](O)[C@H]2O)[C@H](O)[C@@H](O)[C@@H]1O` [trehalose] as the compound, how does the “concentration of trehalose dissolved in PBS” value read?
Its value is “about 50%”.
